What all share (type): biochemical
Test [1] addresses T1, USP30 (Homo sapiens, UniProt Q70CQ3).
T1 sequence (Q70CQ3 1-517): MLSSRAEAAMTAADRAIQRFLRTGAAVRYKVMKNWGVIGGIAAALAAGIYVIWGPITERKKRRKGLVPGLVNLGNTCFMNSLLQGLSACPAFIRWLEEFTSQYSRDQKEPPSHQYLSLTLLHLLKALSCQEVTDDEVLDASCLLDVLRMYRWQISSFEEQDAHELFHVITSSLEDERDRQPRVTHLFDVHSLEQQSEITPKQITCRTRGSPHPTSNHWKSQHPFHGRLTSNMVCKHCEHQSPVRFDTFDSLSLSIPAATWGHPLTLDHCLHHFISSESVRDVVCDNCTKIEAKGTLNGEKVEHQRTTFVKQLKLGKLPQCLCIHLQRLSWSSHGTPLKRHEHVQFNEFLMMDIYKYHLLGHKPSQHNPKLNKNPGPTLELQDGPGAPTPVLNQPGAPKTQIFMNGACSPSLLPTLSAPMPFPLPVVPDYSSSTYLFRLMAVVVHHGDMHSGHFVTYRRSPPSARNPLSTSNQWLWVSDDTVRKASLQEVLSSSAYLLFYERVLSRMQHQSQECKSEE
As to the kind of experiment: End-point Ub-AMC cleavage by off-target DUB USP30. Conditions: 1 μM hD1, 200 nM USP30, 1 μM Ub-AMC. The text has this: USP7 and USP30 are USP DUBs and belong to the same structural family as USP22, while CYLD belongs to the structurally distinct ubiquitin C-terminal hydrolase (UCH) family of DUBs. […]

Test [2] addresses T2, USP27x/ATXN7L3/ENY2 (Homo sapiens, UniProt A6NNY8).
T2 construct: made in house
T2 sequence (A6NNY8 1-438): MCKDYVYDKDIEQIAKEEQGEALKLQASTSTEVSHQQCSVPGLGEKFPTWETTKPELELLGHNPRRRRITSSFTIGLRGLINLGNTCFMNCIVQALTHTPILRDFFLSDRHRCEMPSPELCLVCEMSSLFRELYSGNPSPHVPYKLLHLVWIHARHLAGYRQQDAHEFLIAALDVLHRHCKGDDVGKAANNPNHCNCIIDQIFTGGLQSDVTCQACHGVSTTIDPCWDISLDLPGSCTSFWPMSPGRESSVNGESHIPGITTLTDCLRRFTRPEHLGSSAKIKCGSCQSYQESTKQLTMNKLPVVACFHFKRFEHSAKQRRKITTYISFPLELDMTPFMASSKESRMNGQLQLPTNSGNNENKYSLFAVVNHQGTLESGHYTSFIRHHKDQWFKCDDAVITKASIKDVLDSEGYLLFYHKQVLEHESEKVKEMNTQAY
T2 sequence (Q14CW9 1-347 partner): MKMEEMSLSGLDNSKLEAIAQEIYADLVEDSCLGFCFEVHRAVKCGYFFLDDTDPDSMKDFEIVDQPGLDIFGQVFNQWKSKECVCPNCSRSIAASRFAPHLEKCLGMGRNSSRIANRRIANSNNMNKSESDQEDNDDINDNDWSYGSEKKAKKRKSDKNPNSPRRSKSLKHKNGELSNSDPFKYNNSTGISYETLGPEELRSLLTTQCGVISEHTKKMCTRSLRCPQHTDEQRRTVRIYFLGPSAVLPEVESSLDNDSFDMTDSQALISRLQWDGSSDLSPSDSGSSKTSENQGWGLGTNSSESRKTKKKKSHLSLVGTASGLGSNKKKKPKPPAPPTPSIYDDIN
T2 sequence (Q9NPA8 1-101 partner): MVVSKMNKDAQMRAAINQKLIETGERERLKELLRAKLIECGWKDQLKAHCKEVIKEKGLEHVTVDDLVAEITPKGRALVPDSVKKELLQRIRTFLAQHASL
As to the kind of experiment: Inhibition of H2B DUB complexes, Ub-AMC cleavage: USP27x complex. Conditions: 100 nM complex, 5 μM Ub-AMC. Here is the method:
(§1) Cleavage rates of 5 μM Ub-AMC were assayed for 75 nM USP22/ATXN7L3/ENY2/ATXN7 (hDUBm), 100 nM USP27x/ATXN7L3/ENY2, or 1000 nM USP51/ATXN7L3/ENY2. Rates were normalized to the uninhibited reaction in each case to determine the fraction of apparent activity.
(§2) DUB specificity assays Ubiquitin-rhodamine(110)-glycine cleavage rates were measured for all DUBs available in the DUBprofiler™ panel with two independent replicates (44 in total; Ubiquigent). […] USP22 was not included in the panel, and is not represented in FIG. 12A. […] Initial cleavage rates of each complex were measured on a fixed concentration of 5 μM Ub-AMC.
(§3) Heterotrimeric complexes containing USP27x and USP51 were purified, respectively, in complex with ENY2 and ATXN7L3. The activity of these complexes on Ub-AMC was compared to that of the human DUBm, which contains USP22, ENY2, ATXN7L3, and a fourth subunit, ATXN7, that anchors the DUBm to the rest of the SAGA complex.

In test [3] the target is T3, USP51/ATXN7L3/ENY2 (Homo sapiens, UniProt Q70EK9).
T3 construct: made in house
T3 sequence (Q70EK9 1-711): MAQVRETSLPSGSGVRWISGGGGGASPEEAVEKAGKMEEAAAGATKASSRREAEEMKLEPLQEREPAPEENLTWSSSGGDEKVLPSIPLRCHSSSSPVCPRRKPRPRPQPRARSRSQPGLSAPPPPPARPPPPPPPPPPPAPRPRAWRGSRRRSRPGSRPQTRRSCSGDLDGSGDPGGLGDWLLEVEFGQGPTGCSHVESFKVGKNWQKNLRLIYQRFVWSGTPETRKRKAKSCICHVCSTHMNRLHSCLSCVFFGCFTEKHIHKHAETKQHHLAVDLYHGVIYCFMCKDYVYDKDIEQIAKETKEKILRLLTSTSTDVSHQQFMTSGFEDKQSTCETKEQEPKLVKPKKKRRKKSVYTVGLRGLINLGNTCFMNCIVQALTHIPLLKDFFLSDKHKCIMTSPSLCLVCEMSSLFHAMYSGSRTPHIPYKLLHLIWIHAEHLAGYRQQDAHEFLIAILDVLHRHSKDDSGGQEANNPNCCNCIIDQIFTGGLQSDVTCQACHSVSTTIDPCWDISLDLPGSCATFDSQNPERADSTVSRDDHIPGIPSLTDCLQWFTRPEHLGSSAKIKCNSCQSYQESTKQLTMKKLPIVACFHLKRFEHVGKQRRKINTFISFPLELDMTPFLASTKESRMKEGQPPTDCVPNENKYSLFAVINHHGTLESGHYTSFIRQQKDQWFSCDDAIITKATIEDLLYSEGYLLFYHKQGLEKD
T3 sequence (Q14CW9 1-347 partner): T2 sequence (Q14CW9 1-347 partner)
T3 sequence (Q9NPA8 1-101 partner): T2 sequence (Q9NPA8 1-101 partner)
Nature of the test: Inhibition of H2B DUB complexes, Ub-AMC cleavage: USP51 complex. Conditions: 1000 nM complex, 5 μM Ub-AMC. On the procedure:
as §1, §2, §3

The target in test [4] is T4, USP27x (Homo sapiens, UniProt A6NNY8).
T4 construct: purchased Ubiquigent (DUBprofiler panel)
T4 sequence (A6NNY8 1-438): T2 sequence (A6NNY8 1-438)
Nature of the test: DUBprofiler panel, USP27x alone. The following applies: 1 μM hD1, USP27x alone without other subunits. Here is the method:
The human genome encodes about 80 active DUBs, 55 of which belong to the same USP structural family as USP22, thus presenting a challenge to the development of specific DUB inhibitors. […] The activity of each DUB was tested in the presence of a single concentration of inhibitor and compared with enzyme activity in the absence of compound. […] In this screen, however, USP27x alone was tested in the absence of other subunits.

Positions of bridges follow the written chain, without caps; N, C: chain ends. Non-standard residues stand in square brackets, D forms with d. Residues, ends and D or L forms follow the SMILES beside them. Some results are limits rather than exact numbers.

On to `CC[C@H](C)[C@@H]1NC(=O)[C@H](C)NC(=O)[C@@H](Cc2ccc(O)cc2)NC(=O)CSC[C@@H](C(N)=O)NC(=O)[C@H](CC(C)C)NC(=O)[C@H](CC(C)C)NC(=O)[C@H]([C@@H](C)O)NC(=O)[C@H]([C@@H](C)O)NC(=O)[C@H](CCCCN)NC(=O)CNC(=O)[C@H](CCCNC(=N)N)NC(=O)[C@H](Cc2ccc(O)cc2)NC(=O)[C@H](CO)NC1=O` [hD1] ({CH2CO}-[dY]AISYRGKTTLLC-NH2; thioether N-13), for which the “effect on USP30 activity” value in test [1] was approximately 15%. For the same compound, the IC50 in test [2] is 3 µM; in test [3], more than 250 µM. The “reduction of USP27x activity” value in test [4] is reported as approximately 50%.

Source of the values: US20240228543A1, “CYCLIC PEPTIDE INHIBITORS OF USP22” (THE JOHNS HOPKINS UNIVERSITY, priority 2021, published 2024).
